From PubChem BioAssay AID1963986 (Molecular Pharmacology Branch, DTP, NCI, 2024) come the findings set out here.

The test deals with 171881-019-R-J1-PDC tumor spheroid viability. Put plainly: Anticancer human tumor 171881-019-R-J1-PDC patient-derived invasive breast carcinoma cell line growth inhibition [PI3K]. Particulars: spheroids with HUVEC and MSC; for viability, T/C: stronger effect = lower value. The method in brief: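 Targeted small molecules plus PI3K inhibitors, half-log dose series from Cmax (default top 10 microM), were applied to heterotypic spheroids of cancer cells with HUVEC and MSCs. Viability indicated growth inhibition.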
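Further: spheroids exposed to compound for 7 days before viability read.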
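Wherever viability, T/C is given: 100% = DMSO vehicle-treated spheroids.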

As usually defined, the viability, T/C is the result in the treated group divided by that in the control group, in per cent. One may read the IC50 as the concentration needed to halve the response being measured. Consider `CC(Nc1ncnc2nc[nH]c12)c1cc2cccc(Cl)c2c(=O)n1-c1ccccc1` (configuration not stated), for which the viability, T/C is 90% [middle of 8 runs] (compound 0.0316 µM); 97.5% [middle of 8 runs] (compound 0.1 µM); 99.2% [middle of 8 runs] (compound 0.316 µM); 100% [middle of 8 runs] (compound 1 µM); 87.8% [middle of 8 runs] (compound 3.16 µM); 59.8% [middle of 8 runs] (compound 10 µM). Also, where the note is “compound alone, run of 05/09/2023”, the IC50 is more than 10 µM.
